Reference: patent US5317019A, “Inhibition of interleukin-1 and tumor necrosis factor production by monocytes and/or macrophages” (priority 1991, dated 1994)
Where two headings read alike, the source gives them in different places.

How the values were obtained:
[1] = system: IL-1 production by human monocytes; test: In vitro IL-1 production by LPS-stimulated human monocytes; assay type: cell-based
Experimental: Bacterial lipopolysaccharide (LPS) was used to induce IL-1 production by human peripheral blood monocytes. IL-1 activity was measured by its ability to stimulate a Interleukin 2 (IL-2) producing cell line […] to secrete IL-2, in concert with A23187 ionophore, according to the method of Simon et al., J. Immunol. […] The cells were allowed to adhere for 2 hours, after which time non-adherent cells were removed by gentle washing. […] At the end of the incubation period, culture supernatants were removed and clarified of cells and all debris.

[2] = system: TNF production by human monocytes; test: In vitro TNF production by LPS-stimulated human monocytes (ELISA); assay type: cell-based; details: Table B, LPS 50 ng/ml, 24 h, read-out: IC50, LPS induced TNF human monocyte data
Experimental: The effects of the compounds enumerated above on the in vitro production of TNF by human monocytes was examined using the following protocol.
Bacterial lipopolysaccharide (LPS) was used to induce TNF production by human peripheral blood monocytes. TNF activity was measured by a modification of Winston et al., ELISA, described below. […] The cells were allowed to adhere for 2 hours, after which time non-adherent cells were removed by gentle washing. […] At the end of the incubation period, culture supernatants were removed and clarified of cells and all debris. Culture supernatants were immediately assayed for TNF levels in the manner described below.
The Elisa employes a murine monoclonal anti-human TNF antibody, described below, as the capture antibody and a polyclonal rabbit anti-human TNF, described below, as the second antibody. […] TNF levels in samples were calculated from a standard curve genereated with recombinant human TNF produced in E. Coli (obtained from SmithKIine Beecham Pharmaceuticals, King of Prussia, Pa., USA).
Polyclonal rabbit anti-human TNF antibodies were prepared by repeated immunization of New Zeland White (NZW) rabbits with recombinant human TNF emulsified in complete Freund's adjuvant (DEFCO, Ill., USA).

endotoxin shock in mice = test: In vivo endotoxin shock models (P. acnes and/or LPS-GAL); parameters: species or system mouse (C57BL/6); details: one or both in vivo models
Source text: Two models of endotoxin shock have been utilized to determine in vivo TNF activity and are described below. The actual protocol used in the models is described in Utility Model Examples A and B set out below, i.e. P. acnes model and LPS-GAL model.
The protocol used to test the compound of the method of the subject invention was essentially as has been described in Galanos et al., Proc. Nat'l Acad. Sci USA, 76:5939-43 (1979) whose disclosure is herein incorporated by reference. Briefly, D-gal […] sensitizes various strains of mice to the lethal effects of endotoxin. The administration of D-gal (300-500 mg/kg) intravenously (i.v.) sensitizes the mice to doses of Lipopolysaccharide(LPS ) as low as 0.1 mg. Briefly, male C57BL/6 mice, obtained from Charles River Laboratories (Stone Ridge, N.Y., USA) of 6-12 weeks of age were injected i.v. with 0.1 mg of LPS from Salmonella typhosa (Difco Laboratories, Detroit, Mich., USA) admixed with D(+)-gal (Sigma; 500 mg/kg) in 0.20-0.25 ml pyrogen-free saline. Compounds to be tested were administered at various times prior to or following the i.v. injection of LPS/D-gal. In this model, the control animals usually die 5-6 hr. following the injection of LPS, although on occasion deaths are seen between 24 and 48 hr.
This model is a modification of the previously described protocol for the in vivo induction of TNF as described in Haranaka et al., Cancer Immunol Immunother. 18:81-90, (1984). Treatment with Proprionibacterium Acnes (P. acnes) (1 mg/animal i.p.) renders mice susceptible to the lethal effects of LPS injected 10 days later.
P. acnes was purchased from Burroughs Wellcome (Triangle Park, N.C., USA), and […] of the heat-killed bacteria was administered in 0.5 ml pyrogen-free saline by intraperitoneal (i.p.) injection to male C57BL/6 mice, obtained from Charles River Laboratories (Stone Ridge, N.Y., USA) of 6-12 weeks of age. Ten days later, the mice were injected i.v. with 1 mg LPS in 0.25 ml saline. Compounds to be tested were administered at various times prior to or following the injection of LPS. The survival of animals was monitored for 1 week.
Plasma levels of TNF were measured using a modification of the basic sandwich ELISA method described in Winston et al., Current Protocols in Molecular Biology, Pg. 11.2.1, Ausubel et al., Ed. (1987) John Wiley and Sons, New York, USA. The Elisa employed a hampster monoclonal anti-mouse TNF (Genzyme, Boston, Mass., USA ) as the capture antibody and a polyclonal rabbit anti-murine TNF (Genzyme, Boston, Mass., USA ) as the detecting antibody. TNF levels in rat samples were calculated from a standard curve generated with recombinant murine TNF (Genzyme, Boston, Mass., USA). TNF levels determined by ELISA correlated with levels detected by the L929 bioassay of Ruff et. al., J. Immunol. 125:1671-1677 (1980), with 1 Unit of activity in the bioassay corresponding to 70 picograms (pg) of TNF in the ELISA. The ELISA detected levels of TNF down to 25 pg/ml.

[3] = Table 3, read-out: IC50, inhibition of IL-1 production by LPS stimulated monocytes in vitro
[4] = Homo sapiens, Monocyte, Table 1, LPS 50 ng/ml, 24 h, read-out: IC50, effect on LPS-stimulated IL-1 production by human monocytes
[5] = Homo sapiens, Monocyte, Table 3, read-out: IC50, inhibition of IL-1 production by LPS stimulated monocytes in vitro

Compound	IC50 [1, 4]	IC50 [1, 5]	other results
2-(Acetyl-thio-phenyl)-3-(4-pyridyl)-6,7-dihydro[5H]-pyrrolo-[1,2-a]-imidazole [Compound 20]	–	–	IC50 [1, 3]: > 10000 nM
2-[Trimethylacetyl(thiophenyl)]-3-(4-pyridyl)-6,7-dihydro[5H]pyrrolo-[1,2-a]-imidazole [Compound 16]	–	–	IC50 [1, 3]: > 10000 nM
2-p-bromophenyl-3-pyridyl-6,7-dihydro-[5H]-pyrrolo-[1,2-a]-imidazole [Compound D]	–	–	IC50 [2]: 1000 nM
2-phenyl-3-pyridyl-6,7-dihydro-[5H]-pyrrolo[1,2-a]imidazole [Compound C]	–	–	IC50 [2]: 800 nM
COc1ccc(-c2nc3n(c2-c2ccnc(C)c2)CCC3)cc1 [Compound 9, 2-(4-methoxyphenyl)-3-(4-(2-methyl)pyridyl)-6,7-dihydro-[5H]-pyrrolo-[1,2-a]-imidazole]	700 nM	–	–
CC(=O)OCSc1ccc(-c2nc3n(c2-c2ccncc2)CCC3)cc1 [Compound 10, 2-(4-acetoxymethylthiophenyl)-3-(4-pyridyl)-6,7-dihydro-[5H]-pyrrolo-[1,2-a]-imidazole]	6300 nM	–	IC50 ([2]; Homo sapiens, Monocyte): 3000 nM
CSc1ccc(-c2c(-c3ccncc3)nc3n2CCC3)cc1 [Compound 13, 3-(4-methylthiophenyl)-2-(4-pyridyl)-6,7-dihydro-[5H]-pyrrolo-[1,2-a]-imidazole]	2000 nM	–	–
CCCSc1ccc(-c2nc3n(c2-c2ccncc2)CCC3)cc1 [Compound 14, 2-(4-propylthiophenyl)-3-(4-pyridyl)-6,7-dihydro-[5H]-pyrrolo-[1,2-a]-imidazole]	> 10000 nM	–	–
CCc1cc(-c2c(-c3ccc(SC)cc3)nc3n2CCC3)ccn1 [Compound 15, 2-(4-methylthiophenyl)-3-(4-(2-ethyl)pyridyl)-6,7-dihydro-[5H]-pyrrolo-[1,2-a-]-imidazole]	1300 nM	–	–
CCCOc1ccc(-c2nc3n(c2-c2ccncc2)CCC3)cc1 [Compound 19, 2-(4-(1-Propoxy)phenyl)-3-(4-pyridyl)-6,7-dihydro[5H]pyrrolo-[1,2-a]-imidazole]	–	> 10000 nM	–
COc1ccc(-c2c(-c3ccncc3)n3c([n+]2C)CCC3)cc1 [Compound 21, 2-(4-Methoxyphenyl)-3-(4-pyridyl)-6,7-dihydro-[5H]-pyrrolo-[1,2-a]-N-methylimidazole, monomethylsulfate]	–	–	IC50 [1, 3]: > 10000 nM
c1ccc(-c2nc3n(c2-c2ccncc2)CCC3)cc1 [Compound 22, 2-Phenyl-3-(4-pyridyl)-6,7-dihydro-[5H]-pyrrolo-[1,2-a]imidazole]	–	500 nM	–
c1cc(-c2c(-c3ccc(SSc4ccc(-c5nc6n(c5-c5ccncc5)CCC6)cc4)cc3)nc3n2CCC3)ccn1 [Compound 23, 2-(4-Mercaptophenyl)-3-(4-pyridyl)-6,7-dihydro-[5H]-pyrrolo-[1,2-a]-imidazole disulfide]	–	5900 nM	–
Brc1ccc(-c2nc3n(c2-c2ccncc2)CCC3)cc1 [Compound 27, 2-(4-Bromophenyl)-3-(4-pyridyl)-6,7-dihydro-[5H]-pyrrolo-[1,2-a]-imidazole]	–	700 nM	–
COc1ccc(-c2nc3n(c2-c2ccncc2)CCC3=O)cc1 [Compound E, 2-(4-Methoxyphenyl)-3-(4-pyridyl)-7-oxo-5,6-dihydro-7-H-pyrrolo-[1,2-a]imidazole]	–	–	IC50 ([2]; Homo sapiens, Monocyte): 1000 nM
COc1ccc(-c2nc3n(c2-c2ccncc2)CCC3O)cc1 (stereo not drawn) [Compound F, 5,6-dihydro-2-(4-methoxyphenyl)-3-(4-pyridinyl)-[7H]-pyrrolo[1,2-a]-imidazole-7-ol]	–	–	IC50 ([2]; Homo sapiens, Monocyte): 1000 nM
[O-][S+]1CCn2c1nc(-c1ccc(F)cc1)c2-c1ccncc1 (stereo not drawn) [Compound I, 6-(4-Fluorophenyl)-5-(4'-pyridyl)-2,3-dihydroimidazo[2,1-b]thiazole-1-oxide]	–	–	IC50 ([2]; Homo sapiens, Monocyte): 200 nM
O=S1(=O)CCn2c1nc(-c1ccc(F)cc1)c2-c1ccncc1 [Compound J, 6-(4-Fluorophenyl)-5-(4-pyridyl)-2,3-dihydroimidazo[2,1-b]thiazole-1,1-dioxide]	–	–	IC50 ([2]; Homo sapiens, Monocyte): 9000 nM; Inhibition of in vivo TNF levels / in vivo activity (endotoxin shock in mice): inhibited in vivo TNF levels; Protection from lethal effects of endotoxin shock (endotoxin shock in mice): protected the animals from endotoxic induced shock
Fc1ccc(-c2nc3n(c2-c2ccncc2)CCC3)cc1 [Compound M, 2-(4-Fluorophenyl)-3-(4-pyridyl)-6,7-dihydro-[5H]-pyrrolo-[1,2-a]-imidazole]	–	–	IC50 ([2]; Homo sapiens, Monocyte): 200 nM
Fc1ccc(-c2c(-c3ccncc3)nc3n2CCC3)cc1 [Compound N, 3-(4-Fluorophenyl)-2-(4-pyridyl)-6,7-dihydro-[5H]-pyrrolo-[1,2-a]-imidazole]	–	–	IC50 ([2]; Homo sapiens, Monocyte): 1000 nM

The next lines start with results.

IC50 [1, 4]	IC50 [1, 5]	Compound	other results
1000 nM	–	COc1ccc(-c2nc3ccccn3c2-c2ccncc2)cc1 [Compound 7, 2-(4-methoxyphenyl)-3-(4-pyridyl)-imidazo-[1,2-a]-pyridine]	–
10000 nM	–	c1cc(-c2nc3n(c2-c2ccc4c(c2)OCO4)CCS3)ccn1 [Compound 8, 5-(3,4-(methylenedioxy)phenyl)-6-(4-pyridyl)-2,3-dihydroimidazo-[2-1-b]-thiazole]	–
1800 nM	–	CSc1ccc(-c2nc3n(c2-c2ccncc2)CCS3)cc1 [Compound 11, 6-(4-methylthiophenyl)-5-(4-pyridyl)-2,3-dihydro-imidazo-[2,1-b]-thiazole]	–
1800 nM	–	CSc1ccc(-c2c(-c3ccncc3)nc3n2CCS3)cc1 [Compound 12, 5-(4-methylthiophenyl)-6-(4-pyridyl)-2,3-dihydro-imidazo-[2,1-b]-thiazole]	–
–	> 10000 nM	CC(C)Oc1ccc(-c2nc3n(c2-c2ccncc2)CCC3)cc1 [Compound 17, 2-(4-(2-Propoxy)phenyl)-3-(4-pyridyl)-6,7-dihydro-[5H]-pyrrolo-[1,2-a]-imidazole]	–
–	10000 nM	CCOc1ccc(-c2nc3n(c2-c2ccncc2)CCC3)cc1 [Compound 18, 2-(4-(1-Ethoxy)phenyl)-3-(4-pyridyl)-6,7-dihydro[5H]pyrrolo-[1,2-a]-imidazole]	–
–	100 nM	COc1ccc(-c2nc3n(c2-c2ccncc2)CCC3)cc1 [Compound 24, 2-(4-Methoxyphenyl)-3-(4-pyridyl)-6,7-dihydro-[5H]-pyrrolo-[1,2-a]-imidazole]	IC50 ([2]; Homo sapiens, Monocyte): 500 nM
–	3000 nM	COc1ccc(-c2nc3n(c2-c2ccncc2)CCS3)cc1 [Compound 25, 6-(4-Methoxyphenyl)-5-(4-pyridyl)-2,3-dihydroimidazo-[2,1-b]-thiazole]	–
–	≥ 10000 nM	COc1ccc(-c2c(-c3ccncc3)nc3n2CCS3)cc1 [Compound 26, 5-(4-Methoxyphenyl)-6-(4-pyridyl)-2,3-dihydroimidazole-[2,1-b]-thiazole]	–
